Laboratory results as given in PMC3667592 (Journal of medicinal chemistry, 2013).
Marks after values point to notes of the source that are not given here.

Key:
[1] = Ligand binding, UV-difference titration; conditions: binding to N,N′-Ac2-L-Lys-D-Ala-D-Ala (3)
[2] = reprogrammed precursor terminus D-Ala-D-Lac; cited from earlier work
[3] = binding to N,N′-Ac2-L-Lys-D-Ala-D-Ala (3), ref 8a; cited from earlier work
VanA and VanB VRE = conditions: cited from earlier work

Row | SMILES | Association constant for 3, Ka [1] | Fold decrease in antibiotic binding affinity (D-Ala-D-Lac vs D-Ala-D-Ala) [2] | Association constant for 3, Ka (value in parentheses) [3] | Fold drop in antimicrobial activity against resistant strains (VanA and VanB VRE)
1 | CN[C@H](CC(C)C)C(=O)N[C@H]1C(=O)N[C@@H](CC(N)=O)C(=O)N[C@H]2C(=O)N[C@H]3C(=O)N[C@H](C(=O)N[C@H](C(=O)O)c4cc(O)cc(O)c4-c4cc3ccc4O)[C@H](O)c3ccc(c(Cl)c3)Oc3cc2cc(c3O)Oc2ccc(cc2Cl)[C@H]1O [Vancomycin Aglycon (2), Vancomycin Aglycon] | 1.4 M^−1 (× 10^5) | – | – | –
2 | CN[C@H](CC(C)C)C(=O)N[C@H]1C(=O)N[C@@H](CC(N)=O)C(=O)N[C@H]2C(=O)N[C@H]3C(=O)N[C@H](C(=O)N[C@H](C(=O)O)c4cc(O)cc(O)c4-c4cc3ccc4O)[C@H](O)c3ccc(c(Cl)c3)Oc3cc2cc(c3O[C@@H]2O[C@H](CO)[C@@H](O)[C@H](O)[C@H]2O[C@H]2C[C@](C)(N)[C@H](O)[C@H](C)O2)Oc2ccc(cc2Cl)[C@H]1O [Vancomycin (1), Vancomycin] | 1.8 M^−1 (× 10^5) | 1000 fold | 2.3–3.9 M^−1 (× 10^5) | 1000 fold
